In data set [1] the test system is Plasmodium gallinaceum. In words: Antimalarial activity against Plasmodium gallinaceum B infected in chick at 120 mg/kg. Type of data set: functional, organism-based. On the set-up: dose 120 mg/kg.
The test system of data set [2] is Mus musculus. In words: Toxicity in Plasmodium berghei infected mouse at 640 mg/kg. Type of data set: organism-based. On the set-up: dose 640 mg/kg. The note with it: in vivo.
Data set [3] has as its system Gallus gallus. The data set is described as follows: Toxicity in Plasmodium gallinaceum B infected chick at 120 mg/kg. On the set-up: dose 120 mg/kg. The note with it: chicken, in vivo. Type of data set: organism-based.
Data set [4] has as its system Mus musculus. In words: Toxicity in mouse L1210 cells allografted mouse up to 400 mg/kg. Type of data set: organism-based. On the set-up: dose 400 mg/kg. The note with it: in vivo.
Data set [5] relates to Plasmodium berghei. In words: Antimalarial activity against Plasmodium berghei infected in mouse at 640 mg/kg. The class given is functional, organism-based. On the set-up: dose 640 mg/kg.
Data set [6] deals with L1210. In words: Antitumor activity against mouse L1210 cells allografted in mouse up to 400 mg/kg. On the set-up: dose 400 mg/kg. The class given is functional, organism-based.
Data set [7] relates to Plasmodium berghei. The data set is described as follows: Antimalarial activity against Plasmodium berghei infected in mouse at 320 mg/kg. The class given is functional, organism-based. On the set-up: dose 320 mg/kg.
Data set [8] has as its system Mus musculus. The data set is described as follows: Toxicity in Plasmodium berghei infected mouse at 320 mg/kg. The class given is organism-based. On the set-up: dose 320 mg/kg. The note with it: in vivo.
Data set [9] relates to Gallus gallus. In words: Toxicity in Plasmodium gallinaceum B infected chick at 160 mg/kg. The class given is organism-based. On the set-up: dose 160 mg/kg. The note with it: chicken, in vivo.
Data set [10] deals with Plasmodium gallinaceum. The data set is described as follows: Antimalarial activity against Plasmodium gallinaceum B infected in chick at 160 mg/kg. Type of data set: functional, organism-based. On the set-up: dose 160 mg/kg.
Data set [11] concerns Plasmodium gallinaceum. In words: Antimalarial activity against Plasmodium gallinaceum B infected in chick at 100 mg/kg. On the set-up: dose 100 mg/kg. The class given is functional, organism-based.
In data set [12] the test system is Gallus gallus. In words: Toxicity in Plasmodium gallinaceum B infected chick at 100 mg/kg. The note with it: chicken, in vivo. The class given is organism-based. On the set-up: dose 100 mg/kg.

Calls of active or inactive are those of the source. The calls are words filed in the database; no cut-off is given here.

For the molecule `O=c1[nH]cc(CNc2ccccc2)c(=O)[nH]1`, the outcome in [1], in data set [5] and in data set [6] was inactive. Further, the Activity result in data set [2], in data set [3] and in data set [4] was “Non-toxic” in each case.

As for `O=c1[nH]cc(CNc2ccc(Cl)cc2)c(=O)[nH]1`, the outcome in data set [7] was inactive. Also, the Activity result in data set [8] is “Non-toxic”.

As for `CN(C)Cc1c[nH]c(=O)[nH]c1=O`, the Activity result in data set [4] was “Non-toxic”. Moreover, the result in data set [6] was inactive.

Take `O=c1[nH]cc(CNC2CCCCC2)c(=O)[nH]1`: the outcome in data set [7], in [6] and in data set [10] was inactive. Besides, the Activity entry in data set [8], in data set [9] and in data set [4] was “Non-toxic” throughout.

Consider `Cc1cccc(NCc2c[nH]c(=O)[nH]c2=O)c1`, for which the Activity entry in [2] is given as “Non-toxic”. Further, the result in [5] was inactive.

As to `COc1ccc(NCc2c[nH]c(=O)[nH]c2=O)cc1`, the result in data set [7] and in data set [10] was inactive. The Activity result in data set [8] and in data set [9] was “Non-toxic” in each case.

Consider `CCCCNCc1c[nH]c(=O)[nH]c1=O`, for which the outcome in [11] and in [5] was inactive. For the same molecule, the Activity result in data set [2] and in data set [12] was “Non-toxic” in each case.

(Values after ChEMBL document CHEMBL3272344, “Synthesis of 5-substituted aminomethyluracils via the Mannich reaction” (J Med Chem, 1976).)
